Data taken from patent US20050256103A1, “Indole derivative having piperidine ring” (Eisai Co., Ltd., priority 2004, published 2005).
Like-named read-outs stand apart in the source and are kept apart here.

Assays:
5-HT1A receptor = biological target: T1, 5-HT1A receptor (Sus scrofa, UniProt A0A4X1UTF5); assay: Affinity for serotonin 1A receptor: inhibition of [3H]MPPF binding in swine hippocampal membrane fraction; details: for IC50: [3H]MPPF 0.5 nM, swine hippocampal membrane, 37°C 30 min; for L/H ratio: low affinity IC50 divided by high affinity IC50, 1 or smaller = no intrinsic activity, 2 or greater = intrinsic activity
T1 construct: Swine hippocampus was homogenized in a 50 mM Tris-Hcl buffer; from tissue; host or cells: swine hippocampus, membrane fraction
T1 sequence (A0A4X1UTF5 1-422): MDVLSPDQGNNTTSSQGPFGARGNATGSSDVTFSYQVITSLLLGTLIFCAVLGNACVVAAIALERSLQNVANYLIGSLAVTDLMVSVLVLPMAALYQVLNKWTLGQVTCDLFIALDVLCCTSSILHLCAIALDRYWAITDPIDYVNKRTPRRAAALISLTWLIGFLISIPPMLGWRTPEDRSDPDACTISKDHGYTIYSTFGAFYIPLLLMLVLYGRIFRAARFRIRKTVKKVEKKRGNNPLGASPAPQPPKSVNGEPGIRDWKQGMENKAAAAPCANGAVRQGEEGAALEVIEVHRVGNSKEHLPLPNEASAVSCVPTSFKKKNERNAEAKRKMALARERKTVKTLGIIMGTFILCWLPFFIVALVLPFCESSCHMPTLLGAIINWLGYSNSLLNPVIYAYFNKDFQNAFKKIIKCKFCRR
Text: (1) The affinity of a test substance for a 5-HT1A receptor was examined by an inhibition experiment, in which the inhibitory effect of the test substance against the binding of [^3H]-4-(2′-methoxy)phenyl-1-(2′-(N-2″-pyridinyl)-p-fluorobenzamido)ethyl-piperazine (MPPF) that selectively binds to the 5-HT1A receptor in a swine hippocampal membrane fraction was examined. The 5-HT1A receptor that is a G-protein binding receptor becomes a G-protein binding state with addition of MgCl2. In contrast, it becomes a G-protein non-binding state with addition of guanylylimido diphosphate (Gpp(NH)p). […] Thus, both the affinity of a test substance to the receptor that was in a state of not binding to the G-protein and the affinity of the test substance to the receptor that was in a state of binding to the G-protein were obtained. Then, the obtained values were compared to each other, so as to estimate the level of the intrinsic activity of the test substance. Theoretically, when the value (L/H) obtained by dividing the affinity of a test substance to the receptor that is in a low affinity state (IC50 value) by the affinity of a test substance to the receptor that is in a high affinity state (IC50 value) is 1 or less, the intrinsic activity thereof is zero. The greater this value, the higher the intrinsic activity that can be obtained.
Swine hippocampus was homogenized in a 50 mM Tris-Hcl buffer (pH 7.4; hereinafter referred to as buffer A) that had been cooled on ice. The suspension was centrifuged at 40,000×g for 15 minutes. The obtained pellet was suspended in buffer solution A, and the thus obtained solution was then centrifuged at 40,000×g for 15 minutes. The same operation was repeated 2 or 3 times. The finally obtained pellet was suspended in a buffer solution A in an amount 10 times the wet weight of the swine hippocampus, so as to obtain a membrane fraction. The obtained membrane fraction was stored at −80° C. until use.
A mixture (0.5 ml) used for incubation comprised an appropriate amount of the membrane fraction, a test substance with a desired concentration, MgCl2 (final concentration: 10 mM) or Gpp(NH)p (final concentration: 1 mM), [^3H]MPPF (final concentration: 0.5 nM), dimethyl sulfoxide (final concentration: 1% (v/v)), and a 50 mM Tris-Hcl buffer (pH 7.4). The reaction was initiated with addition of the membrane fraction, and the mixture was incubated at 37° C. for 30 minutes. After completion of the incubation, the mixture was subjected to vacuum filtration with a glass filter, using Cell Harvester. The filter was washed with buffer solution A that had been cooled on ice. Thereafter, radioactivity binding to the receptor was measured with a liquid scintillation counter. Non-specific binding was defined as binding detected in the presence of 10 μM WAY-100,635.

serotonin 1A receptor = biological target: T2, serotonin 1A receptor (Mus musculus, UniProt Q64264); assay: Antagonistic effect on serotonin 1A receptor agonist (8-OH-DPAT)-induced hypothermia in mouse; type: in vivo; details: CD-1 (ICR) male mice; inhibition of hypothermia by 8-OH-DPAT 0.5 mg/kg sc; test substance 15 minutes before agonist
T2 construct: into the rectum of CD-1 (ICR) male mice (25-45 g); from tissue; host or cells: living CD-1 (ICR) male mice (in vivo)
T2 sequence (Q64264 1-421): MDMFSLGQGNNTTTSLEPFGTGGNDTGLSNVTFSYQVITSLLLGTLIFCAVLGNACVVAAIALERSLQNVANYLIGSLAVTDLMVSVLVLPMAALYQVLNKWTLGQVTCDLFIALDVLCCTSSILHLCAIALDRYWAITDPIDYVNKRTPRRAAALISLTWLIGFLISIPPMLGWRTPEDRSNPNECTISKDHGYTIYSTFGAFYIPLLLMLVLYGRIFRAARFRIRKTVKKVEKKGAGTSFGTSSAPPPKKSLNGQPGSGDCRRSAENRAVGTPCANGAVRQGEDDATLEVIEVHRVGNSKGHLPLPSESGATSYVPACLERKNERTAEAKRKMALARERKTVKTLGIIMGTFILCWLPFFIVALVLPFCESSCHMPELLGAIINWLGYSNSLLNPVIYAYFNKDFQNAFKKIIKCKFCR
Description: (1) A thermistor probe was inserted at a depth of approximately 2 cm into the rectum of CD-1 (ICR) male mice (25-45 g), so as to measure the body temperature thereof. Body temperature is decreased by subcutaneous administration of serotonin 1A receptor agonist (8-hydroxy-dipropylaminotetralin (8-OH-DPAT) 0;5 mg/kg. Since a serotonin 1A antagonist inhibits such action, the antagonistic effect of a test substance to a serotonin 1A receptor was evaluated using the inhibitory effect of the hypothermia as an index. The test results are shown in Table 2 indicated below. A test substance was administered 15 minutes before the administration of the serotonin 1A agonist. A serotonin 1A partial agonist alone decreases the body temperature, depending on the degree of the agonistic action thereof. In addition, it has a weak antagonistic effect on 8-OH-DPAT-induced hypothermia.

[1] = receptor in high affinity (G-protein binding, MgCl2 10 mM) state, read-out: High affinity IC50
[2] = receptor in low affinity (G-protein non-binding, Gpp(NH)p 1 mM) state, read-out: Low affinity IC50

Compound	IC50 (5-HT1A receptor; [1]) [nM]	IC50 (5-HT1A receptor; [2]) [nM]	L/H ratio (5-HT1A receptor)	ED50 (serotonin 1A receptor)
CCc1nc2cc(CCN3CCC(n4ccc5ccc(C(N)=O)cc54)CC3)c(OC)cc2o1 [Compound 6, 1-{1-[2-(2-ethyl-6-methoxybenzoxazol-5-yl)ethyl]piperidin-4-yl}-1H-indole-6-carboxamide]	0.2	0.2	1	0.35 mg/kg, sc
COc1cc2onc(C)c2cc1CCN1CCC(n2ccc3ccc(C(N)=O)cc32)CC1 [Compound 2, 1-{1-[2-(6-methoxy-3-methylbenzo[d]isoxazol-5-yl)ethyl]piperidin-4-yl}-1H-indole-6-carboxamide]	0.27	0.35	1.3	0.4 mg/kg, sc
COc1cc2c(cc1CCN1CCC(n3ccc4ccc(C(N)=O)cc43)CC1)OCCO2 [Compound 31, 1-{1-[2-(7-methoxy-2,3-dihydrobenz[1,4]dioxin-6-yl)ethyl]piperidin-4-yl}-1H-indole-6-carboxamide]	0.16	0.15	0.9	0.04 mg/kg, sc
CCc1nc2ccc(OC)c(CCN3CCC(n4ccc5ccc(C(N)=O)cc54)CC3)c2o1 [Compound 5]	0.57	0.45	0.8	0.24 mg/kg, sc
COc1ccc2ncccc2c1CCN1CCC(n2ccc3ccc(C(N)=O)cc32)CC1 [Compound 30, 1-{1-[2-(6-methoxyquinolin-5-yl)ethyl]piperidin-4-yl}-1H-indole-6-carboxamide]	0.2	0.19	1	0.62 mg/kg, sc
COc1ccc2oc(C)nc2c1CCN1CCC(n2ccc3ccc(C(N)=O)cc32)CC1 [Compound 7, 1-{1-[2-(5-methoxy-2-methylbenzoxazol-4-yl)ethyl]piperidin-4-yl)-1H-indole-6-carboxamide]	0.41	0.3	0.7	0.38 mg/kg, sc
COc1ccc2sc(C)nc2c1CCN1CCC(n2ccc3ccc(C(N)=O)cc32)CC1 [Compound 27, 1-{1-[2-(5-methoxy-2-methylbenzothiazol-4-yl)ethyl]piperidin-4-yl}-1H-indole-6-carboxamide]	0.23	0.26	1.1	0.42 mg/kg, sc
COc1cc2c(cc1CCN1CCC(n3ccc4ccc(C(N)=O)cc43)CC1)C(=O)CC2 [Compound 26, 1-{1-[2-(6-methoxy-3-oxoindan-5-yl)ethyl]piperidin-4-yl}-1H-indole-6-carboxamide]	0.16	0.2	1.3	0.25 mg/kg, sc

The next lines start with the values.

IC50 (5-HT1A receptor; [1]) [nM]	IC50 (5-HT1A receptor; [2]) [nM]	L/H ratio (5-HT1A receptor)	ED50 (serotonin 1A receptor)	Compound
0.17	0.12	0.7	0.12 mg/kg, sc	COc1cc2c(cc1CCN1CCC(n3ccc4ccc(C(N)=O)cc43)CC1)C(=O)N(C)CC2 [Compound 33, 1-{1-[2-(6-methoxy-2-methyl-1-oxo-1,2,3,4-tetrahydroisoquinoline-7-yl)ethyl]piperidin-4-yl}-1H-indole-6-carboxamide]
0.27	0.23	0.9	0.2 mg/kg, sc	COc1ccc2c(=O)ccoc2c1CCN1CCC(n2ccc3ccc(C(N)=O)cc32)CC1 [Compound 35, 1-{1-[2-(7-methoxy-4-oxo-4H-chromen-8-yl)ethyl]piperidin-4-yl}-1H-indole-6-carboxamide]
0.33	0.39	1.2	0.53 mg/kg, sc	CNC(=O)c1ccc2ccn(C3CCN(CCc4cc5c(cc4OC)CCC(=O)N5C)CC3)c2c1 [Compound 58, 1-{1-[2-(6-methoxy-1-methyl-2-oxo-1,2,3,4-tetrahydroquinolin-7-yl)ethyl]piperidin-4-yl}-N-methyl-1H-indole-6-carboxamide]
0.26	0.14	0.5	0.2 mg/kg, sc	COc1ccc2c(=O)c(C)c(C)oc2c1CCN1CCC(n2ccc3ccc(C(N)=O)cc32)CC1 [Compound 36, 1-{1-[2-(7-methoxy-2,3-dimethyl-4-oxo-4H-chromen-8-yl)ethyl]piperidin-4-yl}-1H-indole-6-carboxamide]
0.4	0.47	1.2	0.41 mg/kg, sc	COc1ccc2ccccc2c1CCN1CCC(n2ccc3ccc(C(N)=O)cc32)CC1 [Compound 44, 1-{1-[2-(2-methoxynaphthalen-1-yl)ethyl]piperidin-4-yl}-1H-indole-6-carboxamide]
0.31	0.46	1.5	0.3 mg/kg, sc	COc1cc2c(cc1CCN1CCC(n3ccc4ccc(C(N)=O)cc43)CC1)N(C)CCC2 [Compound 53, 1-{1-[2-(6-methoxy-1-methyl-1,2,3,4-tetrahydroquinolin-7-yl)ethyl]piperidin-4-yl}-1H-indole-6-carboxamide]
0.22	0.2	0.9	0.5 mg/kg, sc	COc1cc2c(cc1CCN1CCC(n3ccc4ccc(C(N)=O)cc43)CC1)N(C(C)=O)CCC2 [Compound 52, 1-{1-[2-(1-acetyl-6-methoxy-1,2,3,4-tetrahydroquinolin-7-yl)ethyl]piperidin-4-yl}-1H-indole-6-carboxamide]
0.18	0.24	1.3	0.1 mg/kg, sc	COc1cc2c(cc1CCN1CCC(n3ccc4ccc(C(N)=O)cc43)CC1)N(C)C(=O)CC2 [Compound 57, 1-{1-[2-(6-methoxy-1-methyl-2-oxo-1,2,3,4-tetrahydroquinolin-7-yl)ethyl]piperidin-4-yl}-1H-indole-6-carboxamide]
0.58	0.69	1.2	0.26 mg/kg, sc	COc1cc2ccccc2cc1CCN1CCC(n2ccc3ccc(C(N)=O)cc32)CC1 [Compound 45, 1-{1-[2-(3-methoxynaphthalen-2-yl)ethyl]piperidin-4-yl}-1H-indole-6-carboxamide]
